Molecular target: hTDO2 in human glioblastoma A172 cells (Homo sapiens (Human), UniProt P48775)
Assay: Cellular assay for TDO2 activity determination in A172 cells
Assay type: cell-based
Conditions: overnight incubation, kynurenine absorbance at 480 nm
Outline: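 Glioblastoma A172 cells with endogenous hTDO2, 1.25×10^4 cells/well, incubated overnight at 37° C. with ten serial compound concentrations in IMDM with 2% FBS. Supernatant kynurenine, after TCA precipitation and 4-(dimethylamino)-benzaldehyde reaction, read at 480 nm against kynurenine standard curve; data curve-fitted.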

Sequence of hTDO2 in human glioblastoma A172 cells (P48775 whole entry): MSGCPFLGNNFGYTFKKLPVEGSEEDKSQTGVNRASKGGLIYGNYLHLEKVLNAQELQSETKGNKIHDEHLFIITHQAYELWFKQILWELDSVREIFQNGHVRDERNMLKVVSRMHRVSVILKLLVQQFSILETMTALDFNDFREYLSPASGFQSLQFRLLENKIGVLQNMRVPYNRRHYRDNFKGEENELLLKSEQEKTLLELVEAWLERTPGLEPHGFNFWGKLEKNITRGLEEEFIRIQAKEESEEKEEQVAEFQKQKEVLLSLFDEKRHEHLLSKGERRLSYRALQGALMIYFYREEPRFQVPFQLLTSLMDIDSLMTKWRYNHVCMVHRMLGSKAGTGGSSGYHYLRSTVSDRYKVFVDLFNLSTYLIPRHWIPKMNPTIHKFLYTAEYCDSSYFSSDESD

Row | Structure (SMILES) | IC50 [nM]
1 | O=S(=O)(c1ccc(-c2c[nH]c3cc(F)ccc23)cc1)N1C[C@@H](F)C[C@@H]1CO [Example 126, ((2R,4S)-4-fluoro-1-((4-(6-fluoro-1H-indol-3-yl)phenyl)sulfonyl)pyrrolidin-2-yl)methanol] | 145
2 | O=C1CCCN1CC1(O)CCN(S(=O)(=O)c2ccc(-c3c[nH]c4cc(F)ccc34)cc2)C1 (stereo not shown) [Example 127, 1-((1-((4-(6-fluoro-1H-indol-3-yl)phenyl)sulfonyl)-3-hydroxypyrrolidin-3-yl)methyl)pyrrolidin-2-one] | 85500
3 | O=S(=O)(c1ccc(-c2c[nH]c3cc(F)ccc23)cc1)N1CC[C@@H](O)[C@@H](O)C1 [Example 128, (3S,4R)-1-((4-(6-fluoro-1H-indol-3-yl)phenyl)sulfonyl)piperidine-3,4-diol] | 93500
4 | O=S(=O)(c1ccc(-c2c[nH]c3cc(F)ccc23)cc1)N1C[C@H](F)[C@@H](O)[C@H](O)[C@H]1CO [Example 129, (2R,3R,4S,5S)-5-f1uoro-1-((4-(6-fluoro-1H-indol-3-yl)phenyl)sulfonyl)-2-(hydroxymethyl) piperidine-3,4-diol] | 92000
5 | O=S(=O)(c1ccc(-c2c[nH]c3cc(F)ccc23)cc1)N1CC[C@@H](O)[C@H](O)C1 [Example 130, (3R,4R)-1-((4-(6-fluoro-1H-indol-3-yl)phenyl)sulfonyl)piperidine-3,4-diol] | 96
6 | Cc1nccn1CC1(O)CCN(S(=O)(=O)c2ccc(-c3c[nH]c4cc(F)ccc34)cc2)C1 (stereo not shown) [Example 131, 1-((4-(6-fluoro-1H-indol-3-yl)phenyl)sulfonyl)-3-((2-methyl-1H-imidazol-1-yl)methyl)pyrrolidin-3-ol] | 90000
7 | O=C1CCCN1CC1(O)CCCN(S(=O)(=O)c2ccc(-c3c[nH]c4cc(F)ccc34)cc2)C1 (stereo not shown) [Example 132, 1-((1-((4-(6-fluoro-1H-indol-3-yl)phenyl)sulfonyl)-3-hydroxypiperidin-3-yl)methyl)pyrrolidin-2-one] | 83000
8 | CN(CC(O)c1ncc[nH]1)S(=O)(=O)c1ccc(-c2c[nH]c3cc(F)ccc23)cc1 (stereo not shown) [Example 133, 4-(6-fluoro-1H-indol-3-yl)-N-(2-hydroxy-2-(1H-imidazol-2-yl)ethyl)-N-methylbenzene-sulfonamide] | 169
9 | O=S(=O)(c1ccc(-c2c[nH]c3cc(F)ccc23)cc1)N1C[C@H](O)[C@@H](O)[C@@H]1CO [Example 134, (2S,3S,4S)-1-((4-(6-fluoro-1H-indol-3-yl)phenyl)sulfonyl)-2-(hydroxymethyl) pyrrolidine-3,4-diol] | 125
10 | CN(CC(O)c1cnccn1)S(=O)(=O)c1ccc(-c2c[nH]c3cc(F)ccc23)cc1 (stereo not shown) [Example 135, 4-(6-fluoro-1H-indol-3-yl)-N-(2-hydroxy-2-(pyrazin-2-yl)ethyl)-N-methylbenzene-sulfonamide] | 161
11 | NS(=O)(=O)c1ccc(-c2c[nH]c3cc(F)ccc23)c(Cl)c1 [Example 136, 3-chloro-4-(6-fluoro-1H-indol-3-yl) benzenesulfonamide] | 271
12 | NS(=O)(=O)c1cc(Cl)c(-c2c[nH]c3cc(F)ccc23)c(Cl)c1 [Example 137, 3,5-dichloro-4-(6-fluoro-H-indol-3-yl)-benzenesulfonamide] | 7510
13 | CN(C)C(=O)Cc1cc(-c2c[nH]c3cc(F)ccc23)ccc1S(N)(=O)=O [Example 138, 2-(5-(6-fluoro-1H-indol-3-yl)-2-sulfamoylphenyl)-N,N-dimethylacetamide] | 3160
14 | NS(=O)(=O)c1ccc(-c2c[nH]c3cc(F)ccc23)cc1CCO [Example 139, 4-(6-fluoro-1H-indol-3-yl)-2-(2-hydroxyethyl)-benzenesulfonamide] | 120
15 | CNCCc1cc(-c2c[nH]c3cc(F)ccc23)ccc1S(N)(=O)=O [Example 140, 4-(6-fluoro-1H-indol-3-yl)-2-(2-(methylamino)ethyl)-benzenesulfonamide] | 541
16 | CN(C)CCc1cc(-c2c[nH]c3cc(F)ccc23)ccc1S(N)(=O)=O [Example 141, 2-(2-(dimethylamino)ethyl)-4-(6-fluoro-1H-indol-3-yl)benzenesulfonamide] | 295
17 | NS(=O)(=O)c1ccc(-c2c[nH]c3cc(F)ccc23)cc1CC(F)(F)F [Example 142, 4-(6-fluoro-1H-indol-3-yl)-2-(2,2,2-trifluoroethyl)-benzenesulfonamide] | 247
18 | CNC(=O)Cc1cc(-c2c[nH]c3cc(F)ccc23)ccc1S(N)(=O)=O [Example 143, 2-(5-(6-fluoro-1H-indol-3-yl)-2-sulfamoylphenyl)-N-methylacetamide] | 550
19 | NC(=O)Cc1cc(-c2c[nH]c3cc(F)ccc23)ccc1S(N)(=O)=O [Example 144, 2-(5-(6-fluoro-1H-indol-3-yl)-2-sulfamoylphenyl)-acetamide] | 174
20 | CN1C(=O)CN(S(=O)(=O)c2ccc(-c3c[nH]c4cc(F)ccc34)cc2)CC1=O [Example 145, 4-((4-(6-fluoro-1H-indol-3-yl)phenyl)sulfonyl)-1-methylpiperazine-2,6-dione] | 3610

Row | Structure (SMILES) | IC50 [nM]
21 | O=C1CN(S(=O)(=O)c2ccc(-c3c[nH]c4cc(F)ccc34)cc2)CCN1C[C@@H](O)CO [Example 146, (R)-1-(2,3-dihydroxypropyl)-4-((4-(6-fluoro-1H-indol-3-yl)phenyl)sulfonyl)piperazin-2-one] | 380
22 | O=C1CN(S(=O)(=O)c2ccc(-c3c[nH]c4cc(F)ccc34)cc2)CCN1C[C@H](O)CO [Example 147, (S)-1-(2,3-dihydroxypropyl)-4-((4-(6-fluoro-1H-indol-3-yl)phenyl)sulfonyl)piperazin-2-one] | 441
23 | NCCN1CCN(S(=O)(=O)c2ccc(-c3c[nH]c4cc(F)ccc34)cc2)CC1=O [Example 148, 1-(2-aminoethyl)-4-((4-(6-fluoro-1H-indol-3-yl)phenyl)sulfonyl)piperazin-2-one] | 570
24 | CN(C)CCN1CCN(S(=O)(=O)c2ccc(-c3c[nH]c4cc(F)ccc34)cc2)CC1=O [Example 149, 1-(2-(dimethylamino)ethyl)-4-((4-(6-fluoro-1H-indol-3-yl)phenyl)sulfonyl)piperazin-2-one] | 443
25 | CNCCN1CCN(S(=O)(=O)c2ccc(-c3c[nH]c4cc(F)ccc34)cc2)CC1=O [Example 150, 4-((4-(6-fluoro-1H-indol-3-yl)phenyl)sulfonyl)-1-(2-(methylamino)ethyl) piperazin-2-one] | 365
26 | O=C1CN(S(=O)(=O)c2ccc(-c3c[nH]c4cc(F)ccc34)cc2)CCN1CCO [Example 151, 4-((4-(6-fluoro-1H-indol-3-yl)phenyl)sulfonyl)-1-(2-hydroxyethyl)piperazin-2-one] | 439
27 | NCCCN1CCN(S(=O)(=O)c2ccc(-c3c[nH]c4cc(F)ccc34)cc2)CC1=O [Example 152, 1-(3-aminopropyl)-4-((4-(6-fluoro-1H-indol-3-yl)phenyl-)sulfonyl)piperazin-2-one] | 1320
28 | CNCCCN1CCN(S(=O)(=O)c2ccc(-c3c[nH]c4cc(F)ccc34)cc2)CC1=O [Example 153, 4-((4-(6-fluoro-1H-indol-3-yl)phenyl)sulfonyl)-1-(3-(methylamino)propyl)piperazin-2-one] | 1040
29 | CN(C)CCCN1CCN(S(=O)(=O)c2ccc(-c3c[nH]c4cc(F)ccc34)cc2)CC1=O [Example 154, 1-(3-(dimethylamino)propyl)-4-((4-(6-fluoro-1H-indol-3-yl)phenyl)sulfonyl) piperazine-2-one] | 360
30 | Cc1noc(CNS(=O)(=O)c2ccc(-c3c[nH]c4cc(F)ccc34)cc2)n1 [Example 155, 4-(6-fluoro-1H-indol-3-yl)-N-((3-methyl-1,2,4-oxadiazol-5-yl)methyl) benzenesulfonamide] | 186
31 | O=S(=O)(NCc1ncon1)c1ccc(-c2c[nH]c3cc(F)ccc23)cc1 [Example 156, N-((1,2,4-oxadiazol-3-yl)methyl)-4-(6-fluoro-1H-indol-3-yl)benzenesulfonamide] | 150
32 | O=S(=O)(NCCO)c1ccc(-c2c[nH]c3cc(F)ccc23)cc1 [Example 157, 4-(6-fluoro-1H-indol-3-yl)-N-(2-hydroxyethyl)-benzenesulfonamide] | 66
33 | O=S(=O)(NCCO)c1ccc(-c2c[nH]c3cc(F)ccc23)c(Cl)c1 [Example 158, 3-chloro-4-(6-fluoro-1H-indol-3-yl)-N-(2-hydroxyethyl) benzenesulfonamide] | 283
34 | Cc1nc(CCNS(=O)(=O)c2ccc(-c3c[nH]c4cc(F)ccc34)cc2)c[nH]1 [Example 161, 4-(6-fluoro-1H-indol-3-yl)-N-(2-(2-methyl-1H-imidazol-4-yl)ethyl)benzenesulfonamide] | 220
35 | CCc1cc(-c2c[nH]c3cc(F)ccc23)ccc1S(=O)(=O)NCCC(N)=O [Example 162, 3-(2-ethyl-4-(6-fluoro-1H-indol-3-yl)phenylsulfonamido)-propanamide] | 405
36 | CC(C)c1cc(-c2c[nH]c3cc(F)ccc23)ccc1S(=O)(=O)NCCC(N)=O [Example 163, 3-((4-(6-fluoro-1H-indol-3-yl)-2-isopropylphenyl)-sulfonamido) propanamide] | 2220
37 | CC(C)Cc1cc(-c2c[nH]c3cc(F)ccc23)ccc1S(=O)(=O)NCCC(N)=O [Example 164, 3-((4-(6-fluoro-1H-indol-3-yl)-2-isobutylphenyl)-sulfonamido)propanamide] | 5930
38 | COCc1cc(-c2c[nH]c3cc(F)ccc23)ccc1S(=O)(=O)NCCC(N)=O [Example 165, 3-((4-(6-fluoro-1H-indol-3-yl)-2-(methoxymethyl)phenyl)-sulfonamido) propanamide] | 341
39 | CC(C)Oc1cc(-c2c[nH]c3cc(F)ccc23)ccc1S(=O)(=O)NCCC(N)=O [Example 166, 3-((4-(6-fluoro-1H-indol-3-yl)-2-isopropoxyphenyl)-sulfonamido)propanamide] | 4060
40 | NC(=O)CCNS(=O)(=O)c1ccc(-c2c[nH]c3cc(F)ccc23)cc1CO [Example 167, 3-((4-(6-fluoro-1H-indol-3-yl)-2-(hydroxymethyl)-phenyl)sulfonamido)propanamide] | 41

From patent publication US10544095B2 (Pfizer Inc., priority 2015, dated 2020)
